Each structure is given as a SMILES string. pEC50: −log10 of the molar value. Starred links: 1 amine or outer side, 2 acyl side, 3 side chain; linkers in the order of their positions; H or OH if unused. Non-standard residues stand in square brackets, D forms with d. Residues, ends and D or L forms follow the SMILES beside them. Groups on a side chain read outwards from the residue. *: point of attachment. X1 = O=C(CCCCCCCCCCCCCCCc1nnn[nH]1)NS(=O)(=O)CCCC(=O)*; C20 diacid = O=C(O)CCCCCCCCCCCCCCCCCCC(=O)*; γGlu = O=C(O)[C@H](CCC(=O)[*:2])N[*:1]; Desaminohistidyl = O=C(CCc1c[nH]cn1)*; 12Ado = NCCCCCCCCCCCC(=O)O; AEEA = NCCOCCOCC(=O)O; Aib = CC(C)(N)C(=O)O; Inp = O=C(O)C1CCNCC1

In one series the target is human serum albumin (HSA) (Homo sapiens, UniProt P02768). In words: Albumin binding affinity, competition scintillation proximity assay.
human serum albumin (HSA), sequence (P02768 25-609): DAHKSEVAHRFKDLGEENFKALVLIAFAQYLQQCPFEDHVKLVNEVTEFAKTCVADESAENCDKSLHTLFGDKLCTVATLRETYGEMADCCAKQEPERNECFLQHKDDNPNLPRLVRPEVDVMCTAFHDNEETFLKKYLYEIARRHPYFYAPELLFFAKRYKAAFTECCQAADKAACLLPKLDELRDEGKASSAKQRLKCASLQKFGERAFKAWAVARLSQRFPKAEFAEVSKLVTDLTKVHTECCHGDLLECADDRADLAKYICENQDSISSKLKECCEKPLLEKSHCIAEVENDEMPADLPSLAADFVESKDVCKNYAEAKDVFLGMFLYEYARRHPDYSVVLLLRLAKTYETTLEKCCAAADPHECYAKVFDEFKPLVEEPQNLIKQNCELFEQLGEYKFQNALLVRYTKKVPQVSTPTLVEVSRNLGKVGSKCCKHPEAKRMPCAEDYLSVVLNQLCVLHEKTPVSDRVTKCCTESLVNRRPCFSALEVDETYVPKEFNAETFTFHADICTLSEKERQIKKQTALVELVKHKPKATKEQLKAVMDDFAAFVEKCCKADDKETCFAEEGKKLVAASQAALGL
Settings: not given
(In a scintillation proximity assay essentially only radioactivity close to the scintillant gives light.)
By pEC50 is commonly meant −log10 of the EC50, conventionally taken in molar units. A higher pEC50 goes with a small EC50. As for `CC[C@H](C)[C@H](NC(=O)[C@H](Cc1ccccc1)NC(=O)[C@H](CCC(=O)O)NC(=O)[C@H](CCCNC(=N)N)NC(=O)[C@H](C)NC(=O)[C@H](C)NC(=O)[C@H](CCC(N)=O)NC(=O)[C@H](CCC(=O)O)NC(=O)[C@H](CCC(=O)O)NC(=O)[C@H](CC(C)C)NC(=O)[C@H](Cc1ccc(O)cc1)NC(=O)[C@H](CO)NC(=O)[C@H](CO)NC(=O)[C@@H](NC(=O)[C@H](CC(=O)O)NC(=O)[C@H](CO)NC(=O)[C@@H](NC(=O)[C@H](Cc1ccccc1)NC(=O)[C@@H](NC(=O)CNC(=O)[C@H](CCC(=O)O)NC(=O)[C@H](C)NC(=O)CCc1c[nH]cn1)[C@@H](C)O)[C@@H](C)O)C(C)C)C(=O)N[C@@H](C)C(=O)N[C@@H](Cc1c[nH]c2ccccc12)C(=O)N[C@@H](CC(C)C)C(=O)N[C@H](C(=O)N[C@@H](CCCNC(=N)N)C(=O)NCC(=O)N[C@@H](CCCNC(=N)N)C(=O)NCC(=O)N[C@@H](CCCCNC(=O)COCCOCCNC(=O)COCCOCCNC(=O)CC[C@H](NC(=O)C1CCN(C(=O)CCCCCCCCCCCCCCCCCCC(=O)O)CC1)C(=O)O)C(=O)O)C(C)C` [Example 7, [DesaminoHis7,Glu22,Arg26,Arg34]GLP-1-(7-37)-Lys(2-{2-[2-(2-{2-[2-((S)-4-Carboxy-4-{[1-(19-carboxynonadecanoyl)piperidine-4-carbonyl]amino}butyrylamino)ethoxy]ethoxy}acetylamino)ethoxy]ethoxy}acetyl)] (Desaminohistidyl-AEGTFTSDVSSYLEEQAAREFIAWLVRGRGK([AEEA-AEEA-γGlu-Inp-C20 diacid])-OH), the pEC50 was 6.10 to 6.52.

For the compound `CC[C@H](C)[C@H](NC(=O)[C@H](Cc1ccccc1)NC(=O)[C@H](CCC(=O)O)NC(=O)[C@H](CCCNC(=N)N)NC(=O)[C@H](C)NC(=O)[C@H](C)NC(=O)[C@H](CCC(N)=O)NC(=O)[C@H](CCC(=O)O)NC(=O)[C@H](CCC(=O)O)NC(=O)[C@H](CC(C)C)NC(=O)[C@H](Cc1ccc(O)cc1)NC(=O)[C@H](CO)NC(=O)[C@H](CO)NC(=O)[C@@H](NC(=O)[C@H](CC(=O)O)NC(=O)[C@H](CO)NC(=O)[C@@H](NC(=O)[C@H](Cc1ccccc1)NC(=O)[C@@H](NC(=O)CNC(=O)[C@H](CCC(=O)O)NC(=O)C(C)(C)NC(=O)[C@@H](N)Cc1c[nH]cn1)[C@@H](C)O)[C@@H](C)O)C(C)C)C(=O)N[C@@H](C)C(=O)N[C@@H](Cc1c[nH]c2ccccc12)C(=O)N[C@@H](CC(C)C)C(=O)N[C@H](C(=O)N[C@@H](CCCNC(=N)N)C(=O)NCC(=O)N[C@@H](CCCNC(=N)N)C(=O)N[C@@H](CCCCNC(=O)COCCOCCNC(=O)CC[C@H](NC(=O)CC[C@H](NC(=O)CCCCCCCCCCCNC(=O)CCCS(=O)(=O)NC(=O)CCCCCCCCCCCCCCCc1nnn[nH]1)C(=O)O)C(=O)O)C(N)=O)C(C)C` [Example 48, N-epsilon37-[2-(2-{2-[(S)-4-Carboxy-4-((S)-4-carboxy-4-{12-[4-(16-(1H-tetrazol-5-yl)hexadecanoylsulfamoyl)butyrylamino]dodecanoylamino}butyrylamino)butyrylamino]ethoxy}ethoxy)acetyl][Aib8,Glu22,Arg26,Arg34,Lys37]GLP-1-(7-37)amide], the pEC50 is 5.70 to 6.10.

Compound `CC[C@H](C)[C@H](NC(=O)[C@H](Cc1ccccc1)NC(=O)[C@H](CCC(=O)O)NC(=O)[C@H](CCCNC(=N)N)NC(=O)[C@H](C)NC(=O)[C@H](C)NC(=O)[C@H](CCC(N)=O)NC(=O)[C@H](CCC(=O)O)NC(=O)[C@H](CCC(=O)O)NC(=O)[C@H](CC(C)C)NC(=O)[C@H](Cc1ccc(O)cc1)NC(=O)[C@H](CO)NC(=O)[C@H](CO)NC(=O)[C@@H](NC(=O)[C@H](CC(=O)O)NC(=O)[C@H](CO)NC(=O)[C@@H](NC(=O)[C@H](Cc1ccccc1)NC(=O)[C@@H](NC(=O)CNC(=O)[C@H](CCC(=O)O)NC(=O)C(C)(C)NC(=O)[C@@H](N)Cc1c[nH]cn1)[C@@H](C)O)[C@@H](C)O)C(C)C)C(=O)N[C@@H](C)C(=O)N[C@@H](Cc1c[nH]c2ccccc12)C(=O)N[C@@H](CC(C)C)C(=O)N[C@H](C(=O)N[C@@H](CCCNC(=N)N)C(=O)NCC(=O)N[C@@H](CCCNC(=N)N)C(=O)NCC(=O)N[C@@H](CCCCNC(=O)COCCOCCNC(=O)CC[C@H](NC(=O)CC[C@H](NC(=O)CCCCCCCCCCCNC(=O)CCCS(=O)(=O)NC(=O)CCCCCCCCCCCCCCCc1nnn[nH]1)C(=O)O)C(=O)O)C(N)=O)C(C)C` [Example 46, [Aib8,Glu22,Arg26,Arg34]GLP-1-(7-37)Lys[2-(2-{2-[(S)-4-Carboxy-4-((S)-4-carboxy-4-{12-[4-(16-(1H-tetrazol-5-yl)hexadecanoylsulfamoyl)butyrylamino]dodecanoylamino}-butyrylamino)butyrylamino]ethoxy}ethoxy)acetyl]amide] (H-H[Aib]EGTFTSDVSSYLEEQAAREFIAWLVRGRGK([AEEA-γGlu-γGlu-12Ado-X1])-NH2) had a pEC50 of 7.00 to 9.00.

`CC[C@H](C)[C@H](NC(=O)[C@H](Cc1ccccc1)NC(=O)[C@H](CCC(=O)O)NC(=O)[C@H](CCCNC(=N)N)NC(=O)[C@H](C)NC(=O)[C@H](C)NC(=O)[C@H](CCC(N)=O)NC(=O)CNC(=O)[C@H](CCC(=O)O)NC(=O)[C@H](CC(C)C)NC(=O)[C@H](Cc1ccc(O)cc1)NC(=O)[C@H](CO)NC(=O)[C@H](CO)NC(=O)[C@@H](NC(=O)[C@H](CC(=O)O)NC(=O)[C@H](CO)NC(=O)[C@@H](NC(=O)[C@H](Cc1ccccc1)NC(=O)[C@@H](NC(=O)CNC(=O)[C@H](CCC(=O)O)NC(=O)[C@H](C)NC(=O)CCc1c[nH]cn1)[C@@H](C)O)[C@@H](C)O)C(C)C)C(=O)N[C@@H](C)C(=O)N[C@@H](Cc1c[nH]c2ccccc12)C(=O)N[C@@H](CC(C)C)C(=O)N[C@H](C(=O)N[C@@H](CCCNC(=N)N)C(=O)NCC(=O)N[C@@H](CCCNC(=N)N)C(=O)N[C@@H](CCCCNC(=O)COCCOCCNC(=O)COCCOCCNC(=O)CC[C@H](NC(=O)[C@H]1CC[C@H](CNC(=O)CCCCCCCCCCCCCCCCCCC(=O)O)CC1)C(=O)O)C(N)=O)C(C)C` [Example 25] gave a pEC50 of under 5.70.

The same series, now with this note: human, biotinylated human serum albumin on streptavidin-SPA beads, pH 7.4.
Broadly, the EC50 is the concentration giving half of the maximal effect. Lower therefore signals an effect from little substance. `CC[C@H](C)[C@H](NC(=O)[C@H](Cc1ccccc1)NC(=O)[C@H](CCC(=O)O)NC(=O)[C@H](CCCNC(=N)N)NC(=O)[C@H](C)NC(=O)[C@H](C)NC(=O)[C@H](CCC(N)=O)NC(=O)[C@H](CCC(=O)O)NC(=O)[C@H](CCC(=O)O)NC(=O)[C@H](CC(C)C)NC(=O)[C@H](Cc1ccc(O)cc1)NC(=O)[C@H](CO)NC(=O)[C@H](CO)NC(=O)[C@@H](NC(=O)[C@H](CC(=O)O)NC(=O)[C@H](CO)NC(=O)[C@@H](NC(=O)[C@H](Cc1ccccc1)NC(=O)[C@@H](NC(=O)CNC(=O)[C@H](CCC(=O)O)NC(=O)[C@H](C)NC(=O)CCc1c[nH]cn1)[C@@H](C)O)[C@@H](C)O)C(C)C)C(=O)N[C@@H](C)C(=O)N[C@@H](Cc1c[nH]c2ccccc12)C(=O)N[C@@H](CC(C)C)C(=O)N[C@H](C(=O)N[C@@H](CCCNC(=N)N)C(=O)NCC(=O)N[C@@H](CCCNC(=N)N)C(=O)NCC(=O)N[C@@H](CCCCNC(=O)COCCOCCNC(=O)CC[C@H](NC(=O)COCCOCCNC(=O)CC[C@H](NC(=O)C1CCN(C(=O)CCCCCCCCCCCCCCCCCCC(=O)O)CC1)C(=O)O)C(=O)O)C(=O)O)C(C)C` [Example 58, [DesaminoHis7,Glu22,Arg26,34]-GLP-1 (7-37)-Lys-(2-(2-{2-[(S)-4-carboxy-4-(2-{2-[2-((S)-4-carboxy-4-{[1-(19-carboxynonadecanoyl)piperidine-4-carbonyl]amino}butyrylamino)ethoxy]ethoxy}acetylamino)butyrylamino]ethoxy}ethoxy)acetyl) peptide] (Desaminohistidyl-AEGTFTSDVSSYLEEQAAREFIAWLVRGRGK([AEEA-γGlu-AEEA-γGlu-Inp-C20 diacid])-OH) gave a 50% effective concentration (EC50) at 20 h of 0.1 to 0.15 µM.

Take `CC[C@H](C)[C@H](NC(=O)[C@H](Cc1ccccc1)NC(=O)[C@H](CCC(=O)O)NC(=O)[C@H](CCCCNC(=O)COCCOCCNC(=O)CC[C@H](NC(=O)CC[C@H](NC(=O)CCCNC(=O)CCCS(=O)(=O)NC(=O)CCCCCCCCCCCCCCCc1nnn[nH]1)C(=O)O)C(=O)O)NC(=O)[C@H](C)NC(=O)[C@H](C)NC(=O)[C@H](CCC(N)=O)NC(=O)CNC(=O)[C@H](CCC(=O)O)NC(=O)[C@H](CC(C)C)NC(=O)[C@H](Cc1ccc(O)cc1)NC(=O)[C@H](CO)NC(=O)[C@H](CO)NC(=O)[C@@H](NC(=O)[C@H](CC(=O)O)NC(=O)[C@H](CO)NC(=O)[C@@H](NC(=O)[C@H](Cc1ccccc1)NC(=O)[C@@H](NC(=O)CNC(=O)[C@H](CCC(=O)O)NC(=O)C(C)(C)NC(=O)[C@@H](N)Cc1c[nH]cn1)[C@@H](C)O)[C@@H](C)O)C(C)C)C(=O)N[C@@H](C)C(=O)N[C@@H](Cc1c[nH]c2ccccc12)C(=O)N[C@@H](CC(C)C)C(=O)N[C@H](C(=O)N[C@@H](CCCNC(=N)N)C(=O)O)C(C)C` [Example 36, N-epsilon26-[2-(2-{2-[(S)-4-Carboxy-4-((S)-4-carboxy-4-{4-[4-(16-(1H-tetrazol-5-yl)hexadecanoylsulfamoyl)butyrylamino]butyrylamino}butyrylamino)butyrylamino]ethoxy}ethoxy)acetyl][Aib8,Arg34]GLP-1-(7-34)]: the EC50 at 20 h lay within 0.1 to 0.15 µM.

Turning to `CC[C@H](C)[C@H](NC(=O)[C@H](Cc1ccccc1)NC(=O)[C@H](CCC(=O)O)NC(=O)[C@H](CCCNC(=N)N)NC(=O)[C@H](C)NC(=O)[C@H](C)NC(=O)[C@H](CCC(N)=O)NC(=O)C(C)(C)NC(=O)[C@H](CCC(=O)O)NC(=O)[C@H](CC(C)C)NC(=O)[C@H](Cc1ccc(O)cc1)NC(=O)[C@H](CCCCNC(=O)COCCOCCNC(=O)COCCOCCNC(=O)CC[C@H](NC(=O)C1CCN(C(=O)CCCCCCCCCCCCCCCCCCC(=O)O)CC1)C(=O)O)NC(=O)[C@H](CO)NC(=O)[C@@H](NC(=O)[C@H](CC(=O)O)NC(=O)[C@H](CO)NC(=O)[C@@H](NC(=O)[C@H](Cc1ccccc1)NC(=O)[C@@H](NC(=O)CNC(=O)[C@H](CCC(=O)O)NC(=O)C(C)(C)NC(=O)[C@@H](N)Cc1c[nH]cn1)[C@@H](C)O)[C@@H](C)O)C(C)C)C(=O)N[C@@H](C)C(=O)N[C@@H](Cc1c[nH]c2ccccc12)C(=O)N[C@@H](CC(C)C)C(=O)N[C@H](C(=O)N[C@@H](CCCNC(=N)N)C(=O)NC(C)(C)C(=O)N[C@@H](CCCNC(=N)N)C(=O)NCC(=O)O)C(C)C` [Example 70] (H-H[Aib]EGTFTSDVSK([AEEA-AEEA-γGlu-Inp-C20 diacid])YLE[Aib]QAAREFIAWLVR[Aib]RG-OH), the EC50 at 20 h is 0.8 to 2 µM.

Values taken from patent publication US9067977B2, “Peptides derivatized with A-B-C-D- and their therapeutical use” (Novo Nordisk A/S, priority 2007, dated 2015).
